{"source": "patent US9232796B2", "about": "“Herbicidal compositions comprising 4-amino-3-chloro-5-fluoro-6-(4-chloro-2-fluoro-3-methoxyphenyl) pyridine-2-carboxylic acid or a derivative thereof and acetyl-CoA carboxylase (ACCase) inhibitors” (DOW AGROSCIENCES LLC, priority 2012, dated 2016)", "key": {"CYPRO": {"test_system": "CYPRO", "test": "Example VI in-water applied ternary mixtures, greenhouse, transplanted paddy rice weeds", "type": "in vivo, Cyperus rotundus L.", "settings": "21 DAA", "method": "(§1) Weed seeds or nutlets of the desired test plant species were planted in puddled soil (mud) prepared by mixing a shredded, non-sterilized mineral soil (50.5 percent silt, 25.5 percent clay, and 24 percent sand, with a pH of about 7.6 and an organic matter content of about 2.9 percent) and water at a 1:1 volumetric ratio. The prepared mud was dispensed in 365 mL aliquots into 16-ounce (oz.) non-perforated plastic pots with a surface area of 86.59 square centimeters (cm^2) leaving a headspace of 3 centimeters (cm) in each pot. Mud was allowed to dry overnight prior to planting or transplanting. Rice seeds were planted in Sun Gro MetroMix® 306 planting mixture, which typically has a pH of 6.0 to 6.8 and an organic matter content of about 30 percent, in plastic plug trays. Seedlings at the second or third leaf stage of growth were transplanted into 860 mL of mud contained in 32-oz. non-perforated plastic pots with a surface area of 86.59 cm^2 4 days prior to herbicide application. The paddy was created by filling the headspace of the pots with 2.5 to 3 cm of water. When required to ensure good germination and healthy plants, a fungicide treatment and/or other chemical or physical treatment was applied. The plants were grown for 4-22 days in a greenhouse with an approximate 14 hr. photoperiod which was maintained at about 29° C. during the day and 26° C. during the night. Nutrients were added as Osmocote® (19:6:12, N:P:K+minor nutrients) at 2 g per 16-oz. pot and 4 g per 32-oz. pot. Water was added on a regular basis to maintain the paddy flood, and supplemental lighting was provided with overhead metal halide 1000-Watt lamps as necessary. The plants were employed for testing when they reached the first through fourth true leaf stage.\n(§2) Treatments consisted of the benzyl ester of 4-amino-3-chloro-5-fluoro-6-(4-chloro-2-fluoro-3-methoxy-phenyl)pyridine-2-carboxylic acid (Compound A), formulated as an SC (suspension concentrate), an ACCase inhibitor herbicide, and a third herbicidal component, each applied alone and in ternary combination. Forms of compound A were applied on an acid equivalent basis.\n(§3) The ACCase inhibitor component was applied on an active ingredient basis and included cyhalofop-R-butyl formulated as Clincher® G and metamifop formulated as Metamifop EC. Other herbicidal components were applied on an active ingredient or acid equivalent basis depending on the compound and included penoxsulam formulated as Grasp® SC, bentazon sodium formulated as Basagran®, triclopyr […] (TEA) salt formulated as Grandstand® R, benzobicyclon formulated as Benzobicyclon, benfuresate formulated as Full Slot® WG, pyraclonil formulated as Pyraclon® Flowable, mefenacet (technical grade material), and pretilachlor (technical grade material).\n(§4) Treatment requirements for each compound or herbicidal component were calculated based upon the rates being tested, the concentration of active ingredient or acid equivalent in the formulation, an application volume of 1 mL per component per pot, and an application area of 86.59 cm^2 per pot.\n(§5) For formulated compounds, a measured amount was placed in an individual 100 or 200 mL glass vial and was dissolved in a volume of 1.25% (v/v) Agri-Dex® crop oil concentrate to obtain application solutions.\n(§6) For technical grade compounds, a weighed amount was placed in an individual 100 to 200 mL glass vial and was dissolved in a volume of acetone to obtain concentrated stock solutions.\n(§7) Applications were made by injecting with a pipetter appropriate amounts of the application solutions, into the aqueous layer of the paddy. Control plants were treated in the same manner with the solvent blank. Applications were made so that all treated plant material received the same concentrations of acetone and crop oil concentrate.\n(§8) The treated plants and control plants were placed in a greenhouse as described above and water was added as needed to maintain a paddy flood. […]"}, "CYPIR": {"test_system": "CYPIR", "test": "Example I postemergence foliar-applied, greenhouse, direct seeded rice weeds", "type": "in vivo, Cyperus iria L.", "text": "Seeds or nutlets of the desired test plant species were planted in a soil matrix prepared by mixing a loam or sandy loam soil (e.g., 28.6 percent silt, 18.8 percent clay, and 52.6 percent sand, with a pH of about 5.8 and an organic matter content of about 1.8 percent) and calcareous grit in an 80 to 20 ratio. The soil matrix was contained in plastic pots with a volume of 1 quart and a surface area of 83.6 square centimeters (cm^2). When required to ensure good germination and healthy plants, a fungicide treatment and/or other chemical or physical treatment was applied. The plants were grown for 8-22 days in a greenhouse with an approximate 14 hr. photoperiod which was maintained at about 29° C. during the day and 26° C. during the night. Nutrients (Peters Excel® 15-5-15 5-Ca 2-Mg and iron chelate) were applied in the irrigation solution as needed and water was added on a regular basis. Supplemental lighting was provided with overhead metal halide 1000-Watt lamps as necessary. The plants were employed for testing when they reached the first through fourth true leaf stage.\nTreatments consisted of the acid or esters of 4-amino-3-chloro-5-fluoro-6-(4-chloro-2-fluoro-3-methoxy-phenyl)pyridine-2-carboxylic acid (Compound A), each formulated as an SC (suspension concentrate), and various herbicidal components alone and in combination.\nOther herbicidal components were applied on an acid equivalent (ae) or active ingredient (ai) basis and included acetyl coA carboxylase (ACCase)-inhibiting herbicides (cyclohexanedione and aryloxyphenoxypropionate chemical classes) cyhalofop-butyl formulated as Clincher® SF (285 gr ai/L EC), diclofop-methyl formulated as Hoelon® 3EC, fenoxaprop-p-ethyl+isoxadifen-ethyl formulated as RiceStar® HT (0.58 lb./gal EC), fenoxaprop-p-ethyl+mefenpyr diethyl formulated as Puma® IEC, metamifop formulated as Metamifop EC, haloxyfop-methyl formulated as Gallant Super®, fluazifop-p-butyl formulated as Fusilade® DX, quizalofop-p-ethyl formulated as Assure® II, profoxydim formulated as Aura® 20EC, clethodim applied as Intensity®, sethoxydim formulated as Poast®, and tralkoxydim formulated as Achieve®.\n(§9) Treatment requirements were calculated based upon the rates being tested, the concentration of active ingredient or acid equivalent in the formulation, and a 12 mL application volume at a rate of 187 L/ha.\n(§10) For treatments comprised of formulated compounds, measured amounts of compounds were placed individually in 25 mL glass vials and diluted in a volume of 1.25% (v/v) Agri-Dex® crop oil concentrated to obtain 12× stock solutions. […] Application solutions were prepared by adding an appropriate amount of each stock solution (e.g., 1 mL) and diluted to the appropriate final concentrations with the addition of 10 mL of an aqueous mixture of 1.25% (v/v) crop oil concentrate so that the final spray solutions contained 1.25+/−0.05% (v/v) crop oil concentrate.\n(§11) All stock solutions and applications solutions were visually inspected for compound compatibility prior to application. Spray solutions were applied to the plant material with an overhead Mandel track sprayer equipped with a 8002E nozzles calibrated to deliver 187 L/ha over an application area of 0.503 m^2 at a spray height of 18 to 20 inches (46 to 50 cm) above average plant canopy height. Control plants were sprayed in the same manner with the solvent blank.\nThe treated plants and control plants were placed in a greenhouse as described above and watered by sub-irrigation to prevent wash-off of the test compounds. After approximately 3 weeks, the condition of the test plants as compared with that of the untreated plants was determined visually and scored on a scale of 0 to 100 percent where 0 corresponds to no injury or growth inhibition and 100 corresponds to complete kill. […]"}, "ECHCG [1]": {"test_system": "ECHCG", "test": "Example V (second) postemergence foliar-applied ternary mixtures, greenhouse, direct seeded rice weeds", "type": "in vivo, Echinochloa crus-galli (L.) Beauv.", "settings": "200 gai/ha", "text": "Seeds or nutlets of the desired test plant species were planted in a soil matrix prepared by mixing a sandy loam or loam soil (e.g., 32 percent silt, 23 percent clay, and 45 percent sand, with a pH of about 6.5 and an organic matter content of about 1.9 percent) and calcareous grit in an 80 to 20 ratio. The soil matrix was contained in plastic pots with a volume of 1 quart and a surface area of 83.6 square centimeters (cm^2). When required to ensure good germination and healthy plants, a fungicide treatment and/or other chemical or physical treatment was applied. The plants were grown for 8-22 days in a greenhouse with an approximate 14 hr. photoperiod which was maintained at about 29° C. during the day and 26° C. during the night. Nutrients (Peters Excel® 15-5-15 5-Ca 2-Mg and iron chelate) were applied in the irrigation solution as needed and water was added on a regular basis. Supplemental lighting was provided with overhead metal halide 1000-Watt lamps as necessary. The plants were employed for testing when they reached the first through fourth true leaf stage.\nas §2, with “inhibitor,” for “inhibitor herbicide,”\nThe ACCase inhibitor component was applied on an active ingredient basis and included cyhalofop-R-butyl formulated as Clincher® SF, fenoxaprop-p-ethyl formulated as RiceStar® HT, and profoxydim formulated as Aura® 20EC. Other herbicidal components were applied on an active ingredient or acid equivalent basis depending on the compound and included penoxsulam formulated as Grasp® SC, bentazon sodium formulated as Basagran®, triclopyr […] (TEA) salt formulated as Grandstand® R, bispyribac sodium formulated as Regiment® 80WP, imazamox ammonium formulated as Beyond®, benzobicyclon, quinclorac formulated as Facet® 75DF, glyphosate dimethylammonium (DMA) salt formulated as Durango® DMA, glufosinate ammonium formulated as Ignite® 280, fentrazamide formulated as an emulsifiable concentrate (EC), propyrisulfuron formulated as Zeta One®, and indanofan (technical grade material).\nas §9\nas §10, with “concentrate” for “concentrated”, “9” for “10”, “1.25%” for “1.25+/−0.05%”\nAs required, additional water and/or 97:3 v/v acetone/DMSO was added to individual application solutions so that the final acetone and DMSO concentrations of the application solutions being compared were 8.1% and 0.25%, respectively.\nas §11, with “18” for “18 to 20”, “(46” for “(46 to 50”\nThe treated plants and control plants were placed in a greenhouse as described above and watered by sub-irrigation to prevent wash-off of the test compounds. […]"}, "IPOHE": {"test_system": "IPOHE", "test": "Example V (second) postemergence foliar-applied ternary mixtures, greenhouse, direct seeded rice weeds", "type": "in vivo, Ipomoea hederacea Jacq.", "method": "The treated plants and control plants were placed in a greenhouse as described above and watered by sub-irrigation to prevent wash-off of the test compounds. After approximately 3 weeks, the condition of the test plants as compared with that of the untreated plants was determined visually and scored on a scale of 0 to 100 percent where 0 corresponds to no injury or growth inhibition and 100 corresponds to complete kill.\nColby's equation was used to determine the herbicidal effects expected from the mixtures (Colby, S. R. 1967. Calculation of the synergistic and antagonistic response of herbicide combinations. Weeds 15:20-22.).\nThe following equation was used to calculate the expected activity of mixtures containing three active ingredients, A, B, and C: Expected=A+B+C−((A×B+A×C+B×C)/100)+(A×B×C/10000)"}, "ECHCG [2]": {"test_system": "ECHCG", "test": "Example VI in-water applied ternary mixtures, greenhouse, transplanted paddy rice weeds", "type": "in vivo, Echinochloa crus-galli (L.) Beauv.", "method": "as §1, §2, §3, §4, §5, §6, §7, §8"}, "FIMMI": {"test_system": "FIMMI", "test": "Example VI in-water applied ternary mixtures, greenhouse, transplanted paddy rice weeds", "type": "in vivo, Fimbristylis miliacea (L.) Vahl", "method": "as §1, §2, §3, §4, §5, §6, §7, §8"}}}
{"smiles": "CN(C(=O)COc1nc2ccccc2s1)c1ccccc1", "note": "[Mefenacet]", "values": [{"measurement": "Visual Weed Control (%) - 21 DAA CYPRO Obs", "setting": "CYPRO; Table 69, 75 gai/ha", "result": 0, "unit": "%"}, {"measurement": "Visual Weed Control (%) - 21 DAA CYPRO Obs", "setting": "CYPRO; Table 69, 150 gai/ha", "result": 0, "unit": "%"}]}
{"smiles": "COC(=O)C(C)Oc1ccc(Oc2ccc(Cl)cc2Cl)cc1", "note": "(stereo not shown) [Diclofop-methyl, methyl 2-[4-(2,4-dichlorophenoxy)phenoxy]propanoate]", "values": [{"measurement": "Visual Weed Control (%) - 22 DAA CYPIR Obs", "setting": "CYPIR; 280 gai/ha", "result": 0, "unit": "%"}, {"measurement": "Visual Weed Control (%) - 22 DAA CYPIR Obs", "setting": "CYPIR; 560 gai/ha", "result": 0, "unit": "%"}, {"measurement": "Visual Weed Control (%) - 22 DAA CYPIR Obs", "setting": "CYPIR; 1120 gai/ha", "result": 0, "unit": "%"}]}
{"smiles": "CS(=O)(=O)c1ccc(C(=O)C2=C(Sc3ccccc3)C3CCC(C3)C2=O)c(Cl)c1", "note": "(stereo not shown) [Benzobicyclon]", "values": [{"measurement": "Visual Weed Control (%) - 21 DAA ECHCG Obs", "setting": "ECHCG [1]", "result": 0, "unit": "%"}, {"measurement": "Visual Weed Control (%) - 21 DAA IPOHE Obs", "setting": "IPOHE; 200 gai/ha", "result": 55, "unit": "%"}]}
{"smiles": "CC(C)N1C(=O)c2ccccc2NS1(=O)=O", "note": "[Bentazon Sodium]", "values": [{"measurement": "Visual Weed Control (%) - 21 DAA ECHCG Obs", "setting": "ECHCG [2]; 210 gae/ha, first set", "result": 0, "unit": "%"}, {"measurement": "Visual Weed Control (%) - 21 DAA ECHCG Obs", "setting": "ECHCG [2]; 420 gae/ha, second set", "result": 15, "unit": "%"}, {"measurement": "Visual Weed Control (%) - 21 DAA FIMMI Obs", "setting": "FIMMI; 210 gae/ha, first set", "result": 17, "unit": "%"}, {"measurement": "Visual Weed Control (%) - 21 DAA FIMMI Obs", "setting": "FIMMI; 420 gae/ha, second set", "result": 30, "unit": "%"}]}
{"smiles": "CCCOCCN(C(=O)CCl)c1c(CC)cccc1CC", "note": "[Pretilachlor]", "values": [{"measurement": "Visual Weed Control (%) - 21 DAA CYPRO Obs", "setting": "CYPRO; Table 70, 25 gai/ha", "result": 0, "unit": "%"}, {"measurement": "Visual Weed Control (%) - 21 DAA CYPRO Obs", "setting": "CYPRO; Table 70, 50 gai/ha", "result": 0, "unit": "%"}]}
{"smiles": "CC(C)N1C(=O)c2ccccc2NS1(=O)=O", "note": "[Bentazon sodium]", "values": [{"measurement": "Visual Weed Control (%) - 21 DAA IPOHE Obs", "setting": "IPOHE; 420 gae/ha, lower sub-table", "result": 75, "unit": "%"}, {"measurement": "Visual Weed Control (%) - 21 DAA IPOHE Obs", "setting": "IPOHE; 420 gae/ha, upper sub-table", "result": 53, "unit": "%"}]}
{"smiles": "CCS(=O)(=O)Oc1ccc2c(c1)C(C)(C)CO2", "note": "[Benfuresate]", "values": [{"measurement": "Visual Weed Control (%) - 21 DAA ECHCG Obs", "setting": "ECHCG [2]; 150 gai/ha", "result": 0, "unit": "%"}]}
